For 12 compounds, GI50 and IC50 results are on record in patent publication US8158656B2, “2-indolinone derivatives as multi-target protein kinase inhibitors and histone deacetylase inhibitors” (Shenzhen Chipscreen Biosciences Ltd., priority 2008, dated 2012).

Experiment [1] concerns HL60. Nature of the experiment: Tumor cell proliferation (MTS), HL60. The format is cell-based. Conditions: Homo sapiens, HL-60, HL60, 72 hours. As for the experimental part: Measurement of in vivo cell proliferation:
Tumor cells were trypsinized and plated into 96-well plates at 3,000 per well and incubated in complete medium with 10% FBS for 24 hours. Compounds were added over a final concentration range of 100 μmol/L to 100 nmol/L in 0.1% DMSO and incubated for 72 hours in complete medium. The effects on proliferation were determined by addition of MTS reagent (Promega) according to the instruction, incubation for 2 hours at 37° C. in CO2 incubator, and record the absorbance at 490 nm using an ELISA plate reader.

Experiment [2] deals with T1, Flt3 (Homo sapiens, UniProt P36888).
T1 construct: purchased Cell Signaling
T1 sequence (P36888 27-993): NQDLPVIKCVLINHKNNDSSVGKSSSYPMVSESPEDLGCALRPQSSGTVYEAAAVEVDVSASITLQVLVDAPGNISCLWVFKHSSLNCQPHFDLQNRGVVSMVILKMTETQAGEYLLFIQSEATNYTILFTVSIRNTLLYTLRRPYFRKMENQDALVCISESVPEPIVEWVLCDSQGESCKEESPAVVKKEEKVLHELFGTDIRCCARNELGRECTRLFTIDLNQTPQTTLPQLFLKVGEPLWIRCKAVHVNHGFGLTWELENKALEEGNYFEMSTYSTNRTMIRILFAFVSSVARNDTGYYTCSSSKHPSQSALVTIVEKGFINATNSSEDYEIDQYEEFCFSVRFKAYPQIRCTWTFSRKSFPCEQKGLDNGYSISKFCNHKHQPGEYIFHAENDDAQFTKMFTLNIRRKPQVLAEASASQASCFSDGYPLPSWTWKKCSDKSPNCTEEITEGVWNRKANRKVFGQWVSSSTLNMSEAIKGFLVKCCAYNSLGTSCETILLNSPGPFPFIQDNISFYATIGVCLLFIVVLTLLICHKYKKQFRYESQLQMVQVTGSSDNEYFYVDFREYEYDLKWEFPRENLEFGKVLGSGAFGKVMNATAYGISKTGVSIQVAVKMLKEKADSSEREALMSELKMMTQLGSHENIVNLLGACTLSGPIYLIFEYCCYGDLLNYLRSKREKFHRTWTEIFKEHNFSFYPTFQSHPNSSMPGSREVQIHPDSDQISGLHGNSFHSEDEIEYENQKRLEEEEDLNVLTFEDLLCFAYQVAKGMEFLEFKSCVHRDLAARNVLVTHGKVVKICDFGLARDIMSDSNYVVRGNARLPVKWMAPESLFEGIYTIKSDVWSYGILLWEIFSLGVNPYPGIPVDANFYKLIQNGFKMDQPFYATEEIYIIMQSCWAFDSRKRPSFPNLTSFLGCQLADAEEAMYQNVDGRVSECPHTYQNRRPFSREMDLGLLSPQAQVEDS
Nature of the experiment: Flt3 kinase ELISA bioassay. The format is biochemical. Particulars: ELISA kinase assay, 200 μM ATP. As for the experimental part: This assay is used to measure in vitro kinase activity of Flt3 in an ELISA assay.
• 1. Streptavidin coated, 96-well, white plate • 2. Phospho-Tyrosine Monoclonal Antibody (P-Tyr-100) (Cell Signaling) • 3. HRP-labeled anti-mouse IgG (Upstate) • 4. HTScan™ Tyrosine Kinase Buffer (4×) • 5. DTT (1000×. 1.25 M) • 6. ATP (10 mM) • 7. KDR (Tyr996) Biotinylated Peptide Substrate (Cell Signaling) • 8. Flt3 Kinase (recombinant, human) (Cell Signaling) • 9. Wash Buffer: 1× PBS, 0.05% Tween-20 (PBS/T) • 10. Bovine Serum Albumin (BSA) • 11. Stop Buffer: 50 mM EDTA pH 8 • 12. Enhanced chemiluminescence (ECL) (Amersham) Procedure for performing the assay in 96-well plate: • 1. Add 10 μl 10 mM ATP to 1.25 ml 6 μM substrate peptide. Dilute the mixture with dH20 to 2.5 ml to make 2× ATP/substrate cocktail ([ATP]=[…], [substrate]=3 μm). • 2. Immediately transfer enzyme from −80° C. to ice. Allow enzyme to thaw on ice. • 3. Microcentrifuge briefly at 4° C. to bring liquid to the bottom of the vial. Return immediately to ice. • 4. Add 10 μl of DTT (1.25 M) to 2.5 ml of 4× HTScan™ Tyrosine Kinase Buffer (240 mM HEPES pH 7.5, 20 mM MgCl2, 20 mM MnCl2, 12 μM Na3VO4) to make DTT/Kinase buffer. • 5. Transfer 1.25 ml of DTT/Kinase buffer to enzyme tube to make 4× reaction cocktail ([enzyme]=4 ng/μL in 4× reaction cocktail). • 6. Incubate 12.5 μl of the 4× reaction cocktail with 12.5 μl/well of prediluted compound of interest (usually around 10 μM) for 5 minutes at room temperature. • 7. Add 25 μl of 2× ATP/substrate cocktail to 25 μl/well preincubated reaction cocktail/compound. Final Assay Conditions for a 50 μl Reaction: • 60 mM HEPES pH 7.5 • 5 mM MgCl2 • 5 mM MnCl2 • 3 μM Na3VO4 • 1.25 mM DTT • […] • 1.5 μM peptide • 10 units Flt3 Kinase • 8. Incubate reaction plate at room temperature for 30 minutes. • 9. Add 50 μl/well Stop Buffer (50 mM EDTA, pH 8) to stop the reaction. • 10. Transfer 50 μl of each reaction and 50 μl dH2O/well to a 96-well streptavidincoated plate and incubate at room temperature for 60 minutes. • 11. Wash three times with 200 μl/well PBS/T • 12. Dilute primary antibody, Phospho-Tyrosine Monoclonal Antibody (P-Tyr-100), 1:1000 in PBS/T with 1% BSA. Add 100 μl/well of primary antibody. • 13. Incubate at room temperature for 60 minutes. • 14. Wash three times with 200 μl/well PBS/T • 15. Dilute HRP labeled anti-mouse IgG 1:500 in PBS/T with 1% BSA. Add 100 μl/well diluted antibody. • 16. Incubate at room temperature for 30 minutes. • 17. Wash five times with 200 μl/well PBS/T. • 18. Add 100 μl/well ECL Solution. • 19. Detect luminescence with appropriate Plate Reader.

Structures are written as SMILES.

With `Cc1[nH]c(/C=N/N=C2\C(=O)Nc3ccc(F)cc32)c(C)c1C(=O)NCCCCNc1ccc(C(=O)Nc2ccccc2N)cn1` [Example 10, N-(2-aminophenyl)-6-(4-(2-(((5-fluoro-2-oxoindolin-3-ylidene)hydrazono)-methyl)-3,5-dimethyl-1H-pyrrole-4-carboxamido)butylamino)nicotinamide], halving of growth in experiment [1] (GI50) required 6.28 µM. The compound also yielded an IC50 in experiment [2] of more than 1000 nM.

As for `Cc1[nH]c(/C=N/N=C2\C(=O)Nc3ccc(F)cc32)c(C)c1C(=O)NCCNc1ccc(C(=O)Nc2ccc(F)cc2N)cn1` [Example 14, N-(2-amino-4-fluorophenyl)-6-(2-(2-(((5-fluoro-2-oxoindolin-3-ylidene)-hydrazono)methyl)-3,5-dimethyl-1H-pyrrole-4-carboxamido)ethylamino)nicotinamide], in experiment [1], the GI50 was more than 60 µM. In addition, the IC50 in experiment [2] was determined as 432 nM.

Consider `Cc1[nH]c(/C=N/N=C2\C(=O)Nc3ccc(F)cc32)c(C)c1C(=O)NCCCNc1ccc(C(=O)Nc2ccccc2N)cn1` [Example 7, N-(2-aminophenyl)-6-(3-(2-(((5-fluoro-2-oxoindolin-3-ylidene)hydrazono)-methyl)-3,5-dimethyl-1H-pyrrole-4-carboxamido)propylamino)nicotinamide], for which, in experiment [1], the GI50 was 7.91 µM. In experiment [2], this compound displayed an IC50 of 451 nM.

Turning to `Cc1[nH]c(/C=C2\C(=O)Nc3ccc(F)cc32)c(C)c1C(=O)NCCCNc1ccc(C(=O)Nc2ccccc2N)cn1` [Example 6, (Z)-N-(2-aminophenyl)-6-(3-(2-((5-fluoro-2-oxoindolin-3-ylidene)methyl)-3,5-dimethyl-1H-pyrrole-4-carboxamido)propylamino)nicotinamide], the GI50 in experiment [1] was more than 60 µM. Further, the midpoint of inhibition in experiment [2], the IC50, lay at 132 nM.

In experiment [1], `Cc1[nH]c(/C=C2\C(=O)Nc3ccc(F)cc32)c(C)c1C(=O)NCCCCNc1ccc(C(=O)Nc2ccccc2N)cn1` [Example 9, (Z)-N-(2-aminophenyl)-6-(4-(2-((5-fluoro-2-oxoindolin-3-ylidene)methyl)-3,5-dimethyl-1H-pyrrole-4-carboxamido)butylamino)nicotinamide] displayed a GI50 of 1.27 µM. This compound also displayed an IC50 in experiment [2] of 25 nM.

On to `Cc1[nH]c(/C=C2\C(=O)Nc3ccc(F)cc32)c(C)c1C(=O)NCCCNc1ccc(C(=O)Nc2ccc(F)cc2N)cn1` [Example 16, (Z)-N-(2-amino-4-fluorophenyl)-6-(3-(2-((5-fluoro-2-oxoindolin-3-ylidene)-methyl)-3,5-dimethyl-1H-pyrrole-4-carboxamido)propylamino)nicotinamide], for which the GI50 in experiment [1] was more than 60 µM. The compound also registered an IC50 in experiment [2] of 623 nM.

As to `Cc1[nH]c(/C=N/N=C2\C(=O)Nc3ccc(F)cc32)c(C)c1C(=O)NCCCCNc1ccc(C(=O)Nc2ccc(F)cc2N)cn1` [Example 20, N-(2-amino-4-fluorophenyl)-6-(4-(2-(((5-fluoro-2-oxoindolin-3-ylidene)-hydrazono)methyl)-3,5-dimethyl-1H-pyrrole-4-carboxamido)butylamino)nicotinamide], in experiment [1], the GI50 was more than 60 µM. Moreover, in experiment [2], the IC50 was more than 1000 nM.

Compound `Cc1[nH]c(/C=C2\C(=O)Nc3ccc(F)cc32)c(C)c1C(=O)NCCNc1ccc(C(=O)Nc2ccc(F)cc2N)cn1` [Example 13, (Z)-N-(2-amino-4-fluorophenyl)-6-(2-(2-((5-fluoro-2-oxoindolin-3-ylidene)-methyl)-3,5-dimethyl-1H-pyrrole-4-carboxamido)ethylamino)nicotinamide] had a GI50 in experiment [1] of more than 60 µM. In experiment [2], this compound showed a half-inhibitory concentration (IC50) of 63 nM.

Regarding `Cc1[nH]c(/C=C2\C(=O)Nc3ccc(F)cc32)c(C)c1C(=O)NCCNc1ccc(C(=O)Nc2ccccc2N)cn1` [Example 3, (Z)-N-(2-aminophenyl)-6-(2-(2-((5-fluoro-2-oxoindolin-3-ylidene)methyl)-3,5-dimethyl-1H-pyrrole-4-carboxamido)ethylamino)nicotinamide], halving of growth in experiment [1] (GI50) required 4.15 µM. Further, in experiment [2], half-maximal inhibition (IC50) required 76 nM.

`Cc1[nH]c(/C=C2\C(=O)Nc3ccc(F)cc32)c(C)c1C(=O)NCCCCNc1ccc(C(=O)Nc2ccc(F)cc2N)cn1` [Example 19, (Z)-N-(2-amino-4-fluorophenyl)-6-(4-(2-((5-fluoro-2-oxoindolin-3-ylidene)-methyl)-3,5-dimethyl-1H-pyrrole-4-carboxamido)butylamino)nicotinamide] showed a GI50 in experiment [1] of more than 60 µM. In experiment [2], this compound yielded an IC50 of 21 nM.

In the case of `Cc1[nH]c(/C=N/N=C2\C(=O)Nc3ccc(F)cc32)c(C)c1C(=O)NCCCNc1ccc(C(=O)Nc2ccc(F)cc2N)cn1` [Example 17, N-(2-amino-4-fluorophenyl)-6-(3-(2-(((5-fluoro-2-oxoindolin-3-ylidene)-hydrazono)methyl)-3,5-dimethyl-1H-pyrrole-4-carboxamido)propylamino)nicotinamide], the GI50 in experiment [1] was more than 60 µM. Moreover, the IC50 in experiment [2] is more than 1000 nM.

With `Cc1[nH]c(/C=N/N=C2\C(=O)Nc3ccc(F)cc32)c(C)c1C(=O)NCCNc1ccc(C(=O)Nc2ccccc2N)cn1` [Example 4, N-(2-aminophenyl)-6-(2-(2-(((5-fluoro-2-oxoindolin-3-ylidene)hydrazono)-methyl)-3,5-dimethyl-1H-pyrrole-4-carboxamido)ethylamino)nicotinamide], the GI50 in experiment [1] is more than 60 µM. In experiment [2], this compound yielded an IC50 of 870 nM.
